{"source": "patent US11466044B2", "about": "(WAYNE STATE UNIVERSITY, priority 2017, dated 2022)", "key": {"P aeruginosa": {"system": "P aeruginosa", "assay": "MIC by broth microdilution, P aeruginosa isolates", "type": "cell-based, Pseudomonas aeruginosa"}, "[1]": {"system": "E coli carrying specific resistance determinants", "assay": "MIC by broth microdilution, E coli carrying specific resistance determinants", "type": "cell-based", "details": "for MIC50 / MIC: Escherichia coli"}, "M. abscessus": {"system": "M. abscessus", "assay": "MIC by broth microdilution, M. abscessus", "type": "cell-based", "details": "Mycobacteroides abscessus"}}, "note": "Where two headings read alike, the source gives them in different places."}
{"smiles": "NC[C@@H]1O[C@H](O[C@H]2[C@@H](O)[C@H](O[C@@H]3[C@@H](O)[C@H](N)C[C@H](N)[C@H]3O[C@H]3O[C@H](CO)[C@@H](O)[C@H](O)[C@H]3N)O[C@@H]2CO)[C@H](N)[C@@H](O)[C@@H]1O", "note": "[paromomycin, reference compound]", "values": [{"measurement": "MIC50", "setting": "P aeruginosa; Pseudomonas aeruginosa, read-out: MIC50 P aeruginosa AG33", "result": "> 128", "unit": "µg/mL"}, {"measurement": "MIC50", "setting": "P aeruginosa; Pseudomonas aeruginosa, read-out: MIC50 P aeruginosa AG86", "result": "> 128", "unit": "µg/mL"}, {"measurement": "MIC", "setting": "P aeruginosa; Pseudomonas aeruginosa, read-out: MIC AG031 P. aer. APH(3′)-II", "result": "> 128", "unit": "µg/mL"}, {"measurement": "MIC", "setting": "P aeruginosa; Pseudomonas aeruginosa, read-out: MIC AG032 P. aer. APH(3′)-II", "result": "> 128", "unit": "µg/mL"}, {"measurement": "MIC50 P aeruginosa AG31", "setting": "P aeruginosa; strain AG31, Table 1 (Example 2)", "result": ">128", "unit": "µg/mL"}, {"measurement": "MIC50 P aeruginosa AG32", "setting": "P aeruginosa; strain AG32, Table 1 (Example 2)", "result": ">128", "unit": "µg/mL"}, {"measurement": "MIC50 P aeruginosa AG33", "setting": "P aeruginosa; strain AG33, Table 1 (Example 2)", "result": ">128", "unit": "µg/mL"}, {"measurement": "MIC50 P aeruginosa AG86", "setting": "P aeruginosa; strain AG86, Table 1 (Example 2)", "result": ">128", "unit": "µg/mL"}, {"measurement": "MIC", "setting": "P aeruginosa; strain AG220 Pseudomonas aeruginosa ATCC27853, read-out: MIC AG220 P. aerugin", "result": "> 64", "unit": "µg/mL"}, {"measurement": "MIC APH(3′)-II", "setting": "[1]; APH(3′)-II, Table 3 (Example 2)", "result": ">64", "unit": "µg/mL"}, {"measurement": "MIC50", "setting": "[1]; read-out: MIC50 E coli AG07 AAC(3), AG07 AAC(3), Table 2A (Example 2)", "result": "4 to 8", "unit": "µg/mL"}, {"measurement": "MIC50", "setting": "[1]; read-out: MIC50 E coli AG09 AAC(6′), AG09 AAC(6′), Table 2A (Example 2)", "result": "8 to 16", "unit": "µg/mL"}, {"measurement": "MIC50", "setting": "[1]; read-out: MIC50 E coli AG036 ANT(4′,4″), AG036 ANT(4′,4″), Table 2A (Example 2)", "result": 256, "unit": "µg/mL"}, {"measurement": "MIC50", "setting": "[1]; read-out: MIC50 E coli AG036 ANT(4′,4″), AG036 ANT(4′,4″), Table 2B (Example 2)", "result": "32 to 64", "unit": "µg/mL"}, {"measurement": "MIC50", "setting": "[1]; read-out: MIC50 E coli AG037 APH(3′)-III, AG037 APH(3′)-III, Table 2B (Example 2)", "result": "> 128", "unit": "µg/mL"}, {"measurement": "MIC50", "setting": "[1]; read-out: MIC50 E coli AG037 APH(3′,5″), AG037 APH(3′,5″), Table 2A (Example 2)", "result": "> 256", "unit": "µg/mL"}, {"measurement": "MIC50", "setting": "[1]; read-out: MIC50 E coli AG103 ArmA, AG103 ArmA, Table 2A (Example 2)", "result": 4, "unit": "µg/mL"}, {"measurement": "MIC50", "setting": "[1]; read-out: MIC50 E coli AG103 armA, AG103 armA, Table 2B (Example 2)", "result": 2, "unit": "µg/mL"}, {"measurement": "MIC50", "setting": "[1]; read-out: MIC50 E coli AG105 AAC(2′), AG105 AAC(2′), Table 2A (Example 2)", "result": "2 to 4", "unit": "µg/mL"}, {"measurement": "MIC50", "setting": "[1]; read-out: MIC50 E coli pH414 AAC(6′)-I, pH414 AAC(6′)-I, Table 2B (Example 2)", "result": 2, "unit": "µg/mL"}, {"measurement": "MIC50", "setting": "[1]; read-out: MIC50 E coli pH415 AAC(6′)-II, pH415 AAC(6′)-II, Table 2B (Example 2)", "result": "2 to 4", "unit": "µg/mL"}, {"measurement": "MIC50", "setting": "[1]; read-out: MIC50 E coli pH421 APH(3′)-I, pH421 APH(3′)-I, Table 2B (Example 2)", "result": "> 128", "unit": "µg/mL"}, {"measurement": "MIC50", "setting": "[1]; read-out: MIC50 E coli pH422 APH(3′)-II, pH422 APH(3′)-II, Table 2B (Example 2)", "result": "> 128", "unit": "µg/mL"}, {"measurement": "MIC50", "setting": "[1]; read-out: MIC50 E coli pH423 APH(3)-VI, pH423 APH(3)-VI, Table 2B (Example 2)", "result": "> 128", "unit": "µg/mL"}, {"measurement": "MIC50", "setting": "[1]; read-out: MIC50 E coli pH432 ANT(4′), pH432 ANT(4′), Table 2B (Example 2)", "result": "1 to 2", "unit": "µg/mL"}, {"measurement": "MIC", "setting": "[1]; read-out: MIC AAC(6′)", "result": "2 to 4", "unit": "µg/mL"}, {"measurement": "MIC", "setting": "[1]; read-out: MIC AG003 E. coli AAC(3)-II", "result": "2 to 4", "unit": "µg/mL"}, {"measurement": "MIC", "setting": "[1]; read-out: MIC AG036 ANT(4′,4′′)", "result": "32 to 64", "unit": "µg/mL"}, {"measurement": "MIC", "setting": "[1]; read-out: MIC AG037 APH(3′)-III", "result": "> 128", "unit": "µg/mL"}, {"measurement": "MIC", "setting": "[1]; read-out: MIC AG037 E. coli APH(3′)-III", "result": "> 128", "unit": "µg/mL"}, {"measurement": "MIC", "setting": "[1]; read-out: MIC AG103 armA", "result": 2, "unit": "µg/mL"}, {"measurement": "MIC", "setting": "[1]; read-out: MIC AG163 E. coli APH(3′)-I", "result": "> 128", "unit": "µg/mL"}, {"measurement": "MIC", "setting": "[1]; read-out: MIC AG166 E. coli APH(3′)-II", "result": "> 128", "unit": "µg/mL"}, {"measurement": "MIC", "setting": "[1]; read-out: MIC ANT(4′)", "result": "32 to 64", "unit": "µg/mL"}, {"measurement": "MIC", "setting": "[1]; read-out: MIC APH(3)-VI", "result": "> 64", "unit": "µg/mL"}, {"measurement": "MIC", "setting": "[1]; read-out: MIC APH(3′)-I", "result": "> 64", "unit": "µg/mL"}, {"measurement": "MIC", "setting": "[1]; read-out: MIC APH(3′)-II", "result": "> 64", "unit": "µg/mL"}, {"measurement": "MIC", "setting": "[1]; read-out: MIC APH(3′)-III", "result": "> 64", "unit": "µg/mL"}, {"measurement": "MIC", "setting": "[1]; read-out: MIC APH(3′)-VI", "result": "> 64", "unit": "µg/mL"}, {"measurement": "MIC", "setting": "[1]; read-out: MIC E coli AG007 ANT(3″) AAC(3)-I", "result": 4, "unit": "µg/mL"}, {"measurement": "MIC", "setting": "[1]; read-out: MIC E coli AG103 ArmA", "result": "1 to 2", "unit": "µg/mL"}, {"measurement": "MIC", "setting": "[1]; read-out: MIC E coli AG106 AAC(2′)", "result": "> 64", "unit": "µg/mL"}, {"measurement": "MIC", "setting": "[1]; read-out: MIC E coli AG163/164 APH(3′)-Ia", "result": "> 128", "unit": "µg/mL"}, {"measurement": "MIC", "setting": "[1]; read-out: MIC E coli AG166 APH(3′)-IIa", "result": "> 128", "unit": "µg/mL"}, {"measurement": "MIC", "setting": "[1]; read-out: MIC E coli AG173 AAC(3)-IV", "result": "2 to 4", "unit": "µg/mL"}, {"measurement": "MIC", "setting": "[1]; read-out: MIC E coli AG182 AAC(3)-IV APH(3′)-Ia", "result": "> 128", "unit": "µg/mL"}, {"measurement": "MIC", "setting": "[1]; read-out: MIC E. coli AAC(2′) AG106", "result": "> 64", "unit": "µg/mL"}, {"measurement": "MIC", "setting": "[1]; read-out: MIC E. coli AAC(2′) pH434", "result": "> 64", "unit": "µg/mL"}, {"measurement": "MIC", "setting": "[1]; read-out: MIC E. coli AG106 AAC(2′)-Ia", "result": "> 64", "unit": "µg/mL"}, {"measurement": "MIC", "setting": "[1]; read-out: MIC E. coli pGB2armA armA", "result": 2, "unit": "µg/mL"}, {"measurement": "MIC", "setting": "[1]; read-out: MIC E. coli pH434 AAC(2′)-Ib", "result": "> 64", "unit": "µg/mL"}, {"measurement": "MIC", "setting": "[1]; read-out: MIC pH414 AAC(6′)-I", "result": 2, "unit": "µg/mL"}, {"measurement": "MIC", "setting": "[1]; read-out: MIC pH415 AAC(6′)-II", "result": "2 to 4", "unit": "µg/mL"}, {"measurement": "MIC", "setting": "[1]; read-out: MIC pH421 APH(3)-I", "result": "> 128", "unit": "µg/mL"}, {"measurement": "MIC", "setting": "[1]; read-out: MIC pH421 E. coli APH(3′)-I", "result": "> 128", "unit": "µg/mL"}, {"measurement": "MIC", "setting": "[1]; read-out: MIC pH422 APH(3′)-II", "result": "> 128", "unit": "µg/mL"}, {"measurement": "MIC", "setting": "[1]; read-out: MIC pH422 E. coli APH(3′)-II", "result": "> 128", "unit": "µg/mL"}, {"measurement": "MIC", "setting": "[1]; read-out: MIC pH423 APH(3′)-VI", "result": "> 128", "unit": "µg/mL"}, {"measurement": "MIC", "setting": "[1]; read-out: MIC pH423 E. coli APH(3′)-VI", "result": "> 128", "unit": "µg/mL"}, {"measurement": "MIC", "setting": "[1]; read-out: MIC pH432 ANT(4′)", "result": "1 to 2", "unit": "µg/mL"}, {"measurement": "MIC", "setting": "M. abscessus; ATCC19977, read-out: MIC M. abscessus ATCC 19977 WT", "result": 8, "unit": "µg/mL"}, {"measurement": "MIC", "setting": "M. abscessus; read-out: MIC M. abscessus ATCC", "result": 8, "unit": "µg/mL"}, {"measurement": "MIC", "setting": "M. abscessus; read-out: MIC M. abscessus Clin. Isol.", "result": 32, "unit": "µg/mL"}, {"measurement": "MIC", "setting": "M. abscessus; read-out: MIC M. abscessus clinical isolate", "result": 32, "unit": "µg/mL"}, {"measurement": "MIC", "setting": "M. abscessus; read-out: MIC M. abscessus engineered Δeis2", "result": 4, "unit": "µg/mL"}]}
